Experimental data from patent US20140011755A1, “Cardiac Glycosides for Treating Autoimmune Disease” (Department of Veterans Affairs, priority 2010, published 2014).

Assays:
TNF, IL-6 and IL-1beta = assay: Serum cytokine ELISA in CIA treatment groups; type: in vivo; settings: serum from 3 mice per treatment group, ELISA in triplicate
Excerpt: FIG. 9. Serum cytokine levels are similar between vehicle and cardiac glycoside treatment groups. […] The unpaired student t-test was used to assess significance.

[1] = system: collagen-induced arthritis (CIA); type: in vivo, DBA1/J mice
[2] = injectable versus other formulations; cited from earlier work
CD40 = biological target: T1, CD40 (Mus musculus, UniProt P27512); type: cell-based, mice; settings: pre-treatment with 3.3 or 33 nM
T1 construct: Peritoneal and bone marrow-derived macrophages were isolated from CIA mice; endogenous in cells; host or cells: peritoneal and bone marrow-derived macrophages from CIA mice
T1 sequence (P27512 20-289): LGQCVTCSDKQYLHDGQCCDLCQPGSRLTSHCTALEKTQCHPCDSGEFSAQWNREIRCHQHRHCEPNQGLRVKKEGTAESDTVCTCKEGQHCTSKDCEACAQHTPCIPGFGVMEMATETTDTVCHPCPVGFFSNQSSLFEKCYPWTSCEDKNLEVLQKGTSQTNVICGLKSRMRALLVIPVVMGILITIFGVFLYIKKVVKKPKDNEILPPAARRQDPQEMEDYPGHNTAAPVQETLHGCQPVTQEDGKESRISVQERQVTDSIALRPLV
Experimental: (§1) Activity was monitored by ^3H-thymidine incorporation as a read-out for proliferation. […] Cell type(s) in the splenocyte population responsive to therapeutic concentrations of cardiac glycoside were determined by identifying the population of cells that responded to a dose-dependent decrease in activity in the presence of stimulant, defined as ligand(s) binding to cognate receptor(s). Activity was analyzed by: ^3H-thymidine or BrdU incorporation to monitor proliferation or by ELISA to monitor cytokine production. Splenic T lymphocytes were isolated by negative selection (MACS, Miltinyi Biotec) and are stimulated with PMA, ConA or through the TCR with anti-CD3/anti-CD28 Dynabeads (Invitrogen) and collagen II (all non-TNFR receptors/pathways). […] Peritoneal and bone marrow-derived macrophages were isolated from CIA mice in the presence of M-CSF growth factor and were stimulated with TNF and CD40 ligand (CD40L). […] Splenic B lymphocytes were isolated by negative selection (MACS, Miltinyi Biotec) and were stimulated with BAFF (BLyS), CD40L or through the BCR with anti-IgM u-chain specific antibodies.

TNFR = type: cell-based, mice; settings: pre-treatment with 3.3 or 33 nM
Experimental: as §1

[3] = system: anti-type II collagen antibodies; type: in vivo; settings: sera of 6 mice per prevention group, ANOVA
Experimental: FIG. 10. Cardiac glycosides reduce immunoglobulin levels in CIA mice. ELISAs for anti-type II collagen antibodies were performed on sera derived from 6 representative mice of each prevention group (A, B). Isotype specific antibodies for IgG1 and IgG2a (A) and IgM (B) were utilized. […] Statistical analysis was performed using ANOVA and asterisks indicate points at which the P-values were less than 0.001.
The effects of the different cardiac glycoside treatments on CIA pathology was analyzed by histological scoring. Inflammatory cell infiltrate, synovial hyperplasia, pannus formation and articular cartilage and bone deterioration were evaluated in sectioned paws of treated mice at specific time-points throughout the disease course. Histopathology scores of inflammation, pannus formation and bone and cartilage erosions were conducted by a blinded investigator on toludine blue-stained cross sections of fixed leg joints from representative mice in vehicle and glycoside groups. Pathology scoring for each of the three categories are on a scale of 0-4 with grade 0=normal, 1=mild inflammation, hyperplasia of the synovial lining, cartilage destruction without bone erosion, grades 2 to 4=increasing degrees of inflammatory cell infiltrate, synovial hyperplasia, pannus formation and cartilage and bone destruction. Error bars represent SEM and statistics were performed using the Mann-Whitney test. At the endpoint, mice are bled and serum is collected from representative mice and stored at −80 C until use. To determine anti-collagen II antibody levels and to characterize isotype prevalence, bovine collagen II (Chondrex) was coated O/N at 4 C on an ELISA plate, washed and incubated with 100 uL of 1:10 dilution of each serum sample (in triplicate) for 2 h at RT. Wells were washed and incubated with anti-mouse IgM u-chain specific (Jackson), anti-mouse IgG1, or anti-mouse IgG2a (Southern Biotech) for 1 h at RT. The ELISA was developed and read using BD ELISA development kit. Statistical analysis was performed using the two-tailed ANOVA and asterisks represent P-values less than 0.01.

[4] = system: collagen-induced arthritis (CIA) joints; type: in vivo, DBA1/J mice; settings: cross-sectioned ankle joints, CIA prevention groups
Experimental: FIG. 7. Cardiac glycosides reduce joint pathology in the CIA mouse model for rheumatoid arthritis. Blinded scoring was performed on histologic sections of joints harvested from mice at the end of a CIA prevention study (A-C). Joints derived from three representative mice belonging to each prevention group (A-C) were decalcified, fixed and stained with tolidine blue, followed by scoring by an examiner blinded to treatment status for the severity of synovitis (inflammation), pannus (growth of the synovial lining), and erosions of bone. (D-G) Joints derived from three representative mice belonging to each prevention group were decalcified, fixed, and stained with hematoxylin and eosin. Cross-sectioned ankle joints from vehicle (D), digitoxin (E), ouabain (F) and proscillaridin (G) treated mice are presented. Error bars represent SEM, and asterisks indicate P-values less than 0.05 by Mann-Whitney test.
In treatment studies, mice were randomly enrolled in treatment groups and treatment commenced when the average clinical score was at or above 2. […] Daily dosing commenced upon enrollment at the abovementioned concentrations. […] Double-blinded histopathology scoring was conducted of cross-sectioned joints taken from cardiac glycoside and vehicle recipients. […] The results obtained from these animal studies indicate that cardiac glycosides are effective at reducing the clinical manifestations of disease and reducing joint pathology in mice with collagen arthritis.
The effects of the different cardiac glycoside treatments on CIA pathology was analyzed by histological scoring. Inflammatory cell infiltrate, synovial hyperplasia, pannus formation and articular cartilage and bone deterioration were evaluated in sectioned paws of treated mice at specific time-points throughout the disease course. […] The ELISA was developed and read using BD ELISA development kit. […]

[5] = Human, 3 × 0.5 mg/kg per diem, oral; Andersson, et al. (1975); cited from earlier work
[6] = system: TNF-mediated NFκB activity in HeLa cells; assay: NFκB luciferase reporter assay in TNF-stimulated HeLa cells; type: cell-based; settings: pre-treatment 6 hours with 0-500 nM, 50 ng/mL TNF
Experimental: FIG. 8. […] Values represent mean light units produced. Error bars represent SEM, and statistical significance was determined by unpaired T-test. Single and double asterisks represent P-values of 0.01 or 0.001, respectively. […] Samples were harvested at designated time points and were fractionated into nuclear and cytoplasmic lysates (Pierce). Lysates were quantified using BCA (Pierce), and were equally loaded according to total protein. Membranes were probed for levels of nuclear phospho-p65 (ReIA), phospho-ReIB, and histone (histone served as loading control and fractionation method control) and cytoplasmic degradation of IκBα (beta-tubulin served as loading control and fractionation method control).
HeLa cells were co-transfected with the reporter pNFκB-luc and control vector pTAL (Renilla) for 18 h prior to incubation with 0-500 nM cardiac glycoside for 6 h. Cells are stimulated with 50 ng/mL TNF. […] FIG. 8 B).

erectile dysfunction = settings: 20 mg sublingual; cited from earlier work
[7] = daily i.p. from Mean Visual Score of 2, digitoxin 0.3 mg/kg, proscillaridin […], Mann-Whitney

| SMILES | Serum cytokine levels (TNF, IL-6 and IL-1beta) versus vehicle (TNF, IL-6 and IL-1beta) | Mean Paw Thickness, treatment of established arthritis [1, 7] | Mean Visual Score, treatment of established arthritis [1, 7] | development of CIA (Mean Visual Arthritis Score, Mean Paw Thickness), prevention study ([1]; daily i.p. from the day prior to induction, digitoxin 0.3 mg/kg, ouabain 0.03 mg/kg, proscillaridin […]) | average clinical arthritis scores compared to vehicle, prevention study ([1]; first dose one day prior to boost, 0.3 mg/kg digitoxin, 0.03 mg/kg ouabain, […] proscillaridin, 0.35 mg/kg digoxin, […] bufalin, 15 mice per group) | prevention and treatment of collagen-induced arthritis (CIA) ([1]; murine model for rheumatoid arthritis, summary statement) | bioavailability by formulation [2] | CD40L-mediated activation of macrophage through CD40 (CD40) | TNF-mediated activation of macrophage through TNFR (TNFR) | anti-type II collagen IgG1 level relative to vehicle [3] | anti-type II collagen IgM level relative to vehicle [3] | immune cell infiltrate into the joints (hematoxylin and eosin) [4] | Serum conc. [5] | TNF-mediated NFκB activation (luciferase light units) [6] | safety and efficacy of sublingual administration (erectile dysfunction) |
| --- | --- | --- | --- | --- | --- | --- | --- | --- | --- | --- | --- | --- | --- | --- | --- |
| C[C@@H]1O[C@@H](O[C@@H]2C=C3CC[C@@H]4[C@H](CC[C@]5(C)[C@@H](c6ccc(=O)oc6)CC[C@]45O)[C@@]3(C)CC2)[C@H](O)[C@H](O)[C@H]1O [Proscillaridin, proscillaridin A] | similar | statistically significant reductions | statistically significant reductions | prevented the development of CIA | significantly reduced | potently prevent and treat | higher bioavailability with injectable formulations | inhibits | inhibits | reduced levels | reduced levels | decreased amounts of immune cell infiltrate | 0.75 ng/mL | reduced TNF-mediated NFκB activation in a dose-dependent fashion |  |
| CCCc1nn(C)c2c(=O)[nH]c(-c3cc(S(=O)(=O)N4CCN(C)CC4)ccc3OCC)nc12 [sildenafil] |  |  |  |  |  |  |  |  |  |  |  |  |  |  | safe and effective |
